Test results taken from PMC11148329 (Frontiers in Cellular and Infection Microbiology, 2024).
Where “and” joins values, the source holds several entries; their conditions need not be identical. Equal entries are not always repeated. Where two headings read alike, the source gives them in different places.

What was measured:
α7 nAChR [1] = target: T1, α7 nAChR (Homo sapiens, UniProt P36544); assay: cell-based; format: cell-based
Target sequence in this assay (P36544 23-502 limits assumed): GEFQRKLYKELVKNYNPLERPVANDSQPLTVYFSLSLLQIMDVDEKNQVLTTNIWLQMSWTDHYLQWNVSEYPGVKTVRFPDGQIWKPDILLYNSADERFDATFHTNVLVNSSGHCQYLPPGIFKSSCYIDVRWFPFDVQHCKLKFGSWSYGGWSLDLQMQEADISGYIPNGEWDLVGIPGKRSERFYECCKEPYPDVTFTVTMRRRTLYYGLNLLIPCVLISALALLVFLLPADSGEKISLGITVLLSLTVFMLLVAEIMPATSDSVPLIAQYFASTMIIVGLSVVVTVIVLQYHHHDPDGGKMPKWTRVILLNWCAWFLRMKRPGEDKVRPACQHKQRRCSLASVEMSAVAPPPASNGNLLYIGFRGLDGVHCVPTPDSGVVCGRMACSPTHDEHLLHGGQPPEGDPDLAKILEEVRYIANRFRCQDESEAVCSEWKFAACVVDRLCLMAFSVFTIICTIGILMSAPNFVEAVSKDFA

(α3β2)2β2 nAChR [2] = target: T2, (α3β2)2β2 nAChR (Homo sapiens, UniProt P17787+P32297); assay: cell-based
T2 sequence (P32297 32-505 limits assumed): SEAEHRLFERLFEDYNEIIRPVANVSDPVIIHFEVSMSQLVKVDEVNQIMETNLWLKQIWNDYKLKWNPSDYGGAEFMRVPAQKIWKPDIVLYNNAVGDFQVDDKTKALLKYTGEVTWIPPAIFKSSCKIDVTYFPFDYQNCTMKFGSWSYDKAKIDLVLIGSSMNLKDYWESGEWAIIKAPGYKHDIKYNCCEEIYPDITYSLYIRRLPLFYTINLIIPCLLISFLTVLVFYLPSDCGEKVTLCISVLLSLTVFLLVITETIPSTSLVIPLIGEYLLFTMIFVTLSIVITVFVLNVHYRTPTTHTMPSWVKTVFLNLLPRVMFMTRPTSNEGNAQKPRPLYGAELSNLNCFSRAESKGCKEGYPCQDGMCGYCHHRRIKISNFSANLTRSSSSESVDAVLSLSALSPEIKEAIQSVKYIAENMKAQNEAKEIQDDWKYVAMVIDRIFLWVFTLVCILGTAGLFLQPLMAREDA
T2 sequence (P17787 26-502 limits assumed): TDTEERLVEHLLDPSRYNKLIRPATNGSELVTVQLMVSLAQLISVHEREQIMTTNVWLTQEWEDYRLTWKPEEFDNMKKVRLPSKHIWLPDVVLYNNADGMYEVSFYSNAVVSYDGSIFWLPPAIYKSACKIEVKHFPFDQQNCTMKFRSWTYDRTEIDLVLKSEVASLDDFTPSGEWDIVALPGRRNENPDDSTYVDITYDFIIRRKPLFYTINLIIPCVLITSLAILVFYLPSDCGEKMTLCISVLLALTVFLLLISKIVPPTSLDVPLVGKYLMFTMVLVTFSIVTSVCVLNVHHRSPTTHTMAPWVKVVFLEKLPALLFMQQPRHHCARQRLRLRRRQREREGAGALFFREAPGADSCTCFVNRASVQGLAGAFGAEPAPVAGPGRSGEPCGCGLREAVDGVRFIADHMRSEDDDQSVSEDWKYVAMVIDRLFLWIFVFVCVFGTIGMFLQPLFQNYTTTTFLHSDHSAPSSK

α7 nAChR [3] = target: T1, α7 nAChR; format: cell-based
Target sequence in this assay (P36544 23-502): as the sequence (P36544 23-502 limits assumed) above

(α3β4)2β4 nAChR [4] = target: T3, (α3β4)2β4 nAChR (Homo sapiens, UniProt P30926+P32297)
(α3β4)2α3 nAChR [5] = target: T4, (α3β4)2α3 nAChR (Homo sapiens, UniProt P30926+P32297)
β3-α6-β2-α4-β2 nAChR = β3-α6-β2-α4-β2 nAChR (Homo sapiens, UniProt P17787+P43681+Q15825); assay: cell-based
(α4β2)2β2 nAChR [6] = target: T5, (α4β2)2β2 nAChR (Homo sapiens, UniProt P17787+P43681); assay: cell-based
(α4β2)2α4 nAChR [7] = target: T6, (α4β2)2α4 nAChR (Homo sapiens, UniProt P17787+P43681); assay: cell-based; conditions: read-out: ACh EC90
T6 sequence (P43681 29-627 limits assumed): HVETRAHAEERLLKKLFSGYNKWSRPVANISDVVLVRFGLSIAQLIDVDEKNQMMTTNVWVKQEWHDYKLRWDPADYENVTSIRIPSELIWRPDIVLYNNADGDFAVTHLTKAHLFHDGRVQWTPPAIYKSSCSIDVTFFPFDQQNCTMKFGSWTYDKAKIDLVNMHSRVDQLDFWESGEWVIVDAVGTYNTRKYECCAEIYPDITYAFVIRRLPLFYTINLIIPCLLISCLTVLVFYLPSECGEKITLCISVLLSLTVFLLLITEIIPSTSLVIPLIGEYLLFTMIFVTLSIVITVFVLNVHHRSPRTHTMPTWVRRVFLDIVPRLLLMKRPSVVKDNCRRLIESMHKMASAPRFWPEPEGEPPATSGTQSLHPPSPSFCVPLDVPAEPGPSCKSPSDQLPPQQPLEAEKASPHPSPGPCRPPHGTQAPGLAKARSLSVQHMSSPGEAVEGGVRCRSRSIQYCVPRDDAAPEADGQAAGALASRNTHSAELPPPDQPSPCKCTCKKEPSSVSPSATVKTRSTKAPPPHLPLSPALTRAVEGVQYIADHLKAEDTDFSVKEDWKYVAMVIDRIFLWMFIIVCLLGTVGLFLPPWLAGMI
T6 sequence (P17787 26-502 limits assumed): as the sequence (P17787 26-502 limits assumed) above

α4β2α5 nAChR [8] = target: T7, α4β2α5 nAChR (Homo sapiens, UniProt P17787+P30532+P43681); assay: cell-based; conditions: read-out: ACh EC90
T7 sequence (P43681 29-627 limits assumed): as the sequence (P43681 29-627 limits assumed) above
T7 sequence (P17787 26-502 limits assumed): as the sequence (P17787 26-502 limits assumed) above
T7 sequence (P30532 23-468 partner limits assumed): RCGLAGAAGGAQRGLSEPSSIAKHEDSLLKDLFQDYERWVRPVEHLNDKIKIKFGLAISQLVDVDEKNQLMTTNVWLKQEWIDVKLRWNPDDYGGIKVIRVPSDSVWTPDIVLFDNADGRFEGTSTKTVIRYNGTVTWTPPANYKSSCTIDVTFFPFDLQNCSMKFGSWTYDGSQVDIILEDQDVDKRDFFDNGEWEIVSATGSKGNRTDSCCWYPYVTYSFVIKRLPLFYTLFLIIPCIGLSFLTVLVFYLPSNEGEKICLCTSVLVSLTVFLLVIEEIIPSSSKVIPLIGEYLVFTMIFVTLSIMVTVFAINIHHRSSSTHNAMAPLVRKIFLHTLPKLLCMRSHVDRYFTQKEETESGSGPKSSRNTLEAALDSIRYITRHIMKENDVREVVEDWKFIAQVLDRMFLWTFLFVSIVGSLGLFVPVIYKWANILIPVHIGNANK

α4β2α5 nAChR [9] = target: T7, α4β2α5 nAChR
α7 nAChR [10] = target: T1, α7 nAChR; assay: cell-based; format: cell-based; remark: listed apart in the source
Target sequence in this assay (P36544 23-502 limits assumed): as the sequence (P36544 23-502 limits assumed) above

(α3β4)2α3 nAChR [11] = target: T4, (α3β4)2α3 nAChR; assay: cell-based; conditions: read-out: % Max Inhibition (95% CI)
α4β2α5 nAChR [12] = target: T7, α4β2α5 nAChR; assay: cell-based
(α3β2)2α3 nAChR = (α3β2)2α3 nAChR (Homo sapiens, UniProt P17787+P32297); assay: cell-based; conditions: read-out: % Max Inhibition (95% CI)
(α3β2)2β2 nAChR [13] = target: T2, (α3β2)2β2 nAChR; assay: cell-based; conditions: read-out: % Max Inhibition (95% CI)
α6/α3β2β3 nAChR = α6/α3β2β3 nAChR (Homo sapiens, UniProt P17787+P32297+Q05901+Q15825); assay: cell-based
(α4β2)2α4 nAChR [14] = target: T6, (α4β2)2α4 nAChR; assay: cell-based
(α3β4)2β4 nAChR [15] = target: T3, (α3β4)2β4 nAChR; assay: cell-based; conditions: read-out: % Max Inhibition (95% CI)
(α4β2)2β2 nAChR [16] = target: T5, (α4β2)2β2 nAChR; assay: cell-based; conditions: read-out: % Max Inhibition (95% CI)
[17] = read-out: % Max Inhibition (95% CI)

In the case of `CC(=O)OCC[N+](C)(C)C` [ACh, acetylcholine], the “NH (95% CI) of ACh curve, drug treatment none” value (α7 nAChR [1]) is reported as 1.1 (1.0 - 1.2), the “NH (1) (95% CI)” value ((α3β2)2β2 nAChR [2]) is reported as 0.95 (0.84 – 1.1) and the EC90 ((α3β2)2β2 nAChR [2]; read-out: ACh EC90) is reported as 316 µM. The “NH (1) (95% CI)” value (α7 nAChR [3]) was 1.6 (1.4 – 1.9), the EC90 (α7 nAChR [3]; read-out: ACh EC90) was 1260 µM and the “NH (1) (95% CI)” value ((α3β4)2β4 nAChR [4]) was 1.0 (0.92 – 1.2). The “NH (1) (95% CI)” value ((α3β4)2α3 nAChR [5]) was 1.9 (1.7 – 2.1), the “NH (1) (95% CI)” value (β3-α6-β2-α4-β2 nAChR) was 0.77 (0.69 – 0.85) and the EC90 (β3-α6-β2-α4-β2 nAChR; read-out: ACh EC90) was 40 µM. The “NH (1) (95% CI)” value ((α4β2)2β2 nAChR [6]) was 0.85 (0.76 – 0.95), the EC90 ((α4β2)2β2 nAChR [6]; read-out: ACh EC90) was 100 µM and the EC90 ((α4β2)2α4 nAChR [7]) was 316 µM. For the same compound, the EC90 (α4β2α5 nAChR [8]) was 20 µM and the “NH (1) (95% CI)” value (α4β2α5 nAChR [9]) was 0.90 (0.82 – 0.99).

`CCN1C[C@]2(COC(=O)c3ccccc3N3C(=O)C[C@H](C)C3=O)CC[C@H](OC)[C@@]34[C@@H]5C[C@H]6[C@H](OC)[C@@H]5[C@](O)(C[C@@H]6OC)[C@@](O)([C@@H](OC)[C@H]23)[C@@H]14` [MLA, Methyllycaconitine] was tested, and the “NH (95% CI) of ACh curve with co-applied MLA” value (α7 nAChR [1]) was 0.9 (0.8 - 1.1) and 1.1 (0.9 - 1.2), the IC50 (α7 nAChR [1]; IC50 (95% CI): ACh apparent potency with co-applied MLA) was 330 µM and 412 µM and the “block of ACh EC90 response by MLA” value (α7 nAChR [10]) was “prevented α7 nAChR activation”.

With `CC[C@H](C)[C@H](NC(=O)[C@H](CC(=O)O)NC(=O)[C@H](CS)NC(=O)[C@H](CO)NC(=O)[C@@H](NC(=O)CNC(=O)[C@H](CC(C)C)NC(=O)[C@H](CCCNC(=N)N)NC(=O)[C@@H]1CCCN1C(=O)[C@H](CC(N)=O)NC(=O)[C@H](CCC(=O)O)NC(=O)[C@@H]1CCCN1C(=O)[C@H](CCSC)NC(=O)[C@H](Cc1c[nH]c2ccccc12)NC(=O)[C@@H](NC(=O)[C@@H](NC(=O)[C@@H](N)Cc1ccc(O)cc1)[C@@H](C)O)[C@@H](C)CC)[C@@H](C)O)C(=O)N[C@@H](Cc1ccccc1)C(=O)N[C@H](C(=O)N[C@@H](CC(N)=O)C(=O)N[C@@H](CO)C(=O)N[C@@H](CCCNC(=N)N)C(=O)NCC(=O)N[C@@H](CCCCN)C(=O)N[C@@H](CCCNC(=N)N)C(=O)N[C@@H](C)C(=O)N[C@@H](CO)C(=O)N[C@@H](CCCCN)C(=O)NCC(=O)O)[C@@H](C)O` [RVG peptide] the inhibition at 1000 µM ((α3β4)2α3 nAChR [11]) was 49%, the IC50 (α4β2α5 nAChR [12]) was 340 µM and the inhibition at 1000 µM (α4β2α5 nAChR [12]; [17]) was 67%. For the same compound, the inhibition at 1000 µM ((α3β2)2α3 nAChR) was 67%, the inhibition at 1000 µM ((α3β2)2β2 nAChR [13]) was 57% and the IC50 (α6/α3β2β3 nAChR) was 300 µM. It also gave an inhibition at 1000 µM (α6/α3β2β3 nAChR; [17]) of 82%, an IC50 ((α4β2)2α4 nAChR [14]; IC50 (95% CI)) of 270 µM and an IC50 ((α4β2)2α4 nAChR [14]; IC50, 95% CI) of 220 to 340 µM. For the same compound, the inhibition at 1000 µM ((α4β2)2α4 nAChR [14]; [17]) was 76%, the inhibition at 1000 µM ((α3β4)2β4 nAChR [15]) was 22% and the inhibition at 1000 µM ((α4β2)2β2 nAChR [16]) was 46%. The “% Max Inhibition of ACh EC90 (95% CI)” value (α7 nAChR [10]) was 98 (97 – 99) % and the IC50 (α7 nAChR [10]) was 25 µM.
